Assay results as given in patent publication US10343977B2, “Tetrahydro-isohumulone derivatives, methods of making and using” (KINDEX PHARMACEUTICALS, INC., priority 2012, dated 2019).

How the values were obtained:
[1] = system: LPS-mediated prostaglandin E2 (PGE2) production in RAW264.7 cells; assay: LPS-mediated PGE2 production in RAW264.7 murine macrophage model; assay type: cell-based; details: Mus musculus, RAW264.7, 6 h, 12.5 μM test compound, LPS 1 μg/ml, NI = no inhibition
Procedure: (§1) THIAA derivatives synthesized in Examples 1-19 were dissolved in dimethyl sufoxide (DMSO) and stored at −20° C. LPS was purchased from Sigma Chemicals (St. Louis, Miss.).
(§2) The effect of the THIAA derivatives on LPS-mediated prostaglandin E2 (PGE2) and nitric oxide (NO) production was evaluated in a RAW264.7 murine macrophage model. The RAW 264.7 cell line was purchased from ATCC (Manassas, Va.) and maintained according to their instructions. Cells were grown and subcultured in 96-well plates at a density of 8×10^4 cells per well, and reached 80-90% confluence the next day. THIAA derivatives were added to the cells in serum-free medium at a final concentration of 0.1% DMSO. Following one hour of incubation with the THIAA derivatives, LPS (1 μg/ml) or DMEM medium alone was added to the cells and incubation was continued for 6 hours. Stimulation of RAW 264.7 cells with LPS (1 μg/ml) for 6 hours activated the production of PGE2 and NO. Supernatant media was collected for measurement of PGE2 levels. For NO, incubations were continued overnight. Supernatant media was collected for measurement of NO levels after 16 hours of stimulation. PGE2 levels were measured using assay kits from Assay Designs, (Ann Arbor, Mich.) and NO levels were measured using assay kits from Cayman Chemicals (Ann Harbor, Mich.).
(§3) Results are summarized in Table 2, with data represented as % inhibition of inflammatory mediator production.

[2] = system: LPS-mediated nitric oxide (NO) production in RAW264.7 cells; assay: LPS-mediated NO production in RAW264.7 murine macrophage model; assay type: cell-based; details: Mus musculus, RAW264.7, 16 h, 12.5 μM test compound, LPS 1 μg/ml, NI = no inhibition
Procedure: as §1, §2, §3

[3] = system: LPS-mediated IL-6 production in THP-1 cells; assay: LPS-mediated IL-6 production in THP-1 cells; assay type: cell-based; details: Homo sapiens; 12.5 μM test compound; THP-1 cells, LPS 1 μg/ml; NI = no inhibition
Procedure: as §1
(§4) The effect of the THIAA derivatives on LPS-mediated MMP-9, IL-1β, ([…], MCP-1, RANTES, and MIP-1α was evaluated in THP-1 cells. Stimulation of THP-1 cells with LPS (1 μg/ml) activated the production of MMP-9, IL-1β, MCP-1, RANTES, and MIP-1α.
as §3

[4] = system: LPS-mediated MCP-1 production in THP-1 cells; assay: LPS-mediated MCP-1 production in THP-1 cells; assay type: cell-based; details: Homo sapiens; 12.5 μM test compound; THP-1 cells, LPS 1 μg/ml; NI = no inhibition
Procedure: as §1, §4, §3

[5] = system: LPS-mediated MIP-1α production in THP-1 cells; assay: LPS-mediated MIP-1α production in THP-1 cells; assay type: cell-based; details: Homo sapiens; 12.5 μM test compound; THP-1 cells, LPS 1 μg/ml; NI = no inhibition
Procedure: as §1, §4, §3

[6] = system: LPS-mediated RANTES production in THP-1 cells; assay: LPS-mediated RANTES production in THP-1 cells; assay type: cell-based; details: Homo sapiens; 12.5 μM test compound; THP-1 cells, LPS 1 μg/ml; NI = no inhibition
Procedure: as §1, §4, §3

[7] = system: LPS-mediated inflammatory mediators in RAW264.7 and THP-1 cells; assay: Mean inhibition across all six inflammatory mediators; assay type: cell-based; details: 12.5 μM test compound
Procedure: as §2, §4, §3
Mean inhibition across all six inflammatory mediators was calculated for each of the THIAA derivatives.

PPARα = biological target: T1, PPARα (Homo sapiens, UniProt Q07869); assay: PPARα reporter assay (INDIGO Biosciences); assay type: cell-based; details: 12.5 μM test compound, luciferase reporter cells, 20 hours, activity compared to GW590735; for Emax at 12.5 µM: read-out: PPARα % GW590735 (20.6 nM)
T1 sequence (Q07869 1-468): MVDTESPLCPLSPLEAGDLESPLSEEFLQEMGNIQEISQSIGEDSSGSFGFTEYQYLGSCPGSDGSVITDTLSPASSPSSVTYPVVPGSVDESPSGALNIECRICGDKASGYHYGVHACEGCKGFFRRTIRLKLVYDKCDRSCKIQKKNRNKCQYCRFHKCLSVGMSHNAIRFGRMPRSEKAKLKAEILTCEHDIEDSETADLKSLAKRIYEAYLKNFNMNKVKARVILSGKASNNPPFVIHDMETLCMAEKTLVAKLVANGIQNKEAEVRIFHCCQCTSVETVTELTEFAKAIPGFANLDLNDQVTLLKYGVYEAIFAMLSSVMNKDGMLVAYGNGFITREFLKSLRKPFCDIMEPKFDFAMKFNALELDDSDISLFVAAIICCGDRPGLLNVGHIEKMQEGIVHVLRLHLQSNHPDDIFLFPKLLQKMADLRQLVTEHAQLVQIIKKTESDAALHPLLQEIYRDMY
Procedure: (§5) The functional effect of THIAA derivatives on PPARα and PPARγ activity was evaluated using a PPAR reporter assay (INDIGO Biosciences, Pa.). This assay utilizes non-human mammalian cells engineered to provide constitutive high level expression of PPARα, or PPARγ and containing a luciferase report gene specific to the appropriate PPAR. Following activation by agonist binding, PPAR induces expression of the luciferase reporter gene. Luciferase activity therefore provides a surrogate for measuring PPAR activity in agonist-treated cells.
(§6) 0.1% DMSO was used as a solvent control for each assay. Plates were incubated for 20 hours in a humidified incubator at 37° C. and 5% CO2. After incubation, the cell medium was discarded and the cells were treated with 100 μL of luciferase detection reagent for 15 minutes. Plates were analyzed using a luminometer (Victor2, Perkin Elmer). Average relative light unit (RLU) and standard deviation were measured.

PPARγ = biological target: T2, PPARγ (Homo sapiens, UniProt P37231); assay: PPARγ reporter assay (INDIGO Biosciences); assay type: cell-based; details: 20 h, read-out: PPARγ % rosiglitazone (500 nM), 12.5 μM test compound; luciferase reporter cells, 20 hours; activity compared to rosiglitazone
T2 sequence (P37231 1-505): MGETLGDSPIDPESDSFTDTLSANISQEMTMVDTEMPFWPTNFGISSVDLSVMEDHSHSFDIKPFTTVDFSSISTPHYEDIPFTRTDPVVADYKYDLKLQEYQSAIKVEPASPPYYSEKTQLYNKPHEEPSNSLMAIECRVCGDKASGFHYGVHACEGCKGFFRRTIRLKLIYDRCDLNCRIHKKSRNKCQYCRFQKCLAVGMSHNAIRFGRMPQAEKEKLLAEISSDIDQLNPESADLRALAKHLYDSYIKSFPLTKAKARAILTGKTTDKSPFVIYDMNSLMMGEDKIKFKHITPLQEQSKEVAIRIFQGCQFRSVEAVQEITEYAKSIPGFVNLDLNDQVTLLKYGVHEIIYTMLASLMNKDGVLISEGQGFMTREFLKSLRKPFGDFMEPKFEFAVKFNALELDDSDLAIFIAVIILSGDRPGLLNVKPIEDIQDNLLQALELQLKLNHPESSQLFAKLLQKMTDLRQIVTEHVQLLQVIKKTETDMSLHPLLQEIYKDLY
Procedure: as §5, §6

SMILES | inhibition at 12.5 µM [1] [%] | inhibition at 12.5 µM [2] [%] | inhibition at 12.5 µM [3] [%] | inhibition at 12.5 µM [4] [%] | inhibition at 12.5 µM [5] [%] | inhibition at 12.5 µM [6] [%] | inhibition at 12.5 µM [7] [%] | Emax at 12.5 µM (PPARα) [%] | Emax at 12.5 µM (PPARγ) [%] | PPARα % GW590735 (20.6 nM) (PPARα) | melting point [°C]
CC(C)CCC(=O)[C@@]1(O)C(=O)/C(=C(\CC(C)C)NCc2ccccc2)C(=O)[C@@H]1CCC(C)C [KDT0024, (4R,5R)-2-[1-(benzylamino)-3-methylbutylidene]-4-hydroxy-5-(3-methylbutyl)-4-(4-methylpentanoyl)cyclopentane-1,3-dione] | 81 | 27 | 53 | 80 | < 0 | 20 | 44 | < 5 | < 5 | – | –
C#CCCOC(=O)O[C@]1(C(=O)CCC(C)C)C(O)=C(C(=O)CC(C)C)C(=O)[C@@H]1CCC(C)C [KDT0035, but-3-yn-1-yl (1S,5R)-2-hydroxy-3-(3-methylbutanoyl)-5-(3-methylbutyl)-1-(4-methylpentanoyl)-4-oxocyclopent-2-en-1-yl carbonate] | 89 | 44 | 65 | 95 | 82 | 84 | 77 | 40 | 43 | dual PPARα and PPARγ agonists | –
CCCCCCCCCC(=O)O[C@]1(C(=O)CCC(C)C)C(O)=C(C(=O)C(C)C)C(=O)[C@@H]1CCC(C)C [KDT0036, (1S,5R)-2-hydroxy-5-(3-methylbutyl)-1-(4-methylpentanoyl)-3-(2-methylpropanoyl)-4-oxocyclopent-2-en-1-yl decanoate] | 45 | 97 | 83 | 98 | 25 | 88 | 73 | < 5 | ≥ 5 | no effect | –
CC(C)CC[C@H]1C(=O)C(C(=O)CC(C)C)=C(O)[C@]1(O)C(=O)CCC(C)C(=O)O (stereo partly drawn) [KDT0038, 5-[(1S,5R)-1,2-dihydroxy-3-(3-methylbutanoyl)-5-(3-methylbutyl)-4-oxocyclopent-2-en-1-yl]-2-methyl-5-oxopentanoic Acid] | < 0 | < 0 | < 0 | 46 | < 0 | < 20 | < 20 | < 5 | < 5 | – | –
CC(C)CCC(O)[C@@]1(O)C(O)=C(C(=O)CC(C)C)C(=O)[C@@H]1CCC(C)C (stereo partly drawn) [KDT0039, (4R,5R)-3,4-dihydroxy-4-(1-hydroxy-4-methylpentyl)-2-(3-methylbutanoyl)-5-(3-methylbutyl)cyclopent-2-en-1-one] | < 0 | < 20 | 22 | 50 | 23 | 58 | 26 | < 5 | < 5 | – | –
CC(C)=CC[C@H]1C(=O)C(C(=O)CC(C)C)=C(O)[C@]1(O)C(=O)/C=C/C(C)(C)O [KDT0040, (4S,5R)-3,4-dihydroxy-4-[(2E)-4-hydroxy-4-methylpent-2-enoyl]-2-(3-methylbutanoyl)-5-(3-methylbut-2-en-1-yl)cyclopent-2-en-1-one] | 54 | 26 | < 0 | 53 | < 0 | 18 | 25 | < 5 | < 5 | – | –
CC(C)CCC(=O)[C@@]1(O)C(O)=C(C(=O)C(C)C)C(=O)[C@@H]1CCC(C)C [KDT100, (4S,5R)-3,4-dihydroxy-5-(3-methylbutyl)-4-(4-methylpentanoyl)-2-(2-methylpropanoyl)cyclopent-2-en-1-one] | < 0 | < 0 | < 20 | 61 | < 0 | 22 | < 20 | < 5 | – | no effect | 49 to 50
CC(C)CCC(=O)[C@@]1(O)C(O)=C(C(=O)CC(C)C)C(=O)[C@H]1CCC(C)C [KDT700, (4S,5S)-3,4-dihydroxy-2-(3-methylbutanoyl)-5-(3-methylbutyl)-4-(4-methylpentanoyl)cyclopent-2-en-1-one] | < 20 | < 0 | < 20 | 88 | 36 | 64 | 34 | < 5 | < 5 | – | –
